Assay results published in patent US3975399A, “1,5-Disubstituted-2-pyrrolidinones, -3-pyrrolin-2-ones, and -4-pyrrolin-2-ones” (E. I. Du Pont de Nemours and Company, priority 1974, dated 1976).
In brackets after ≈: the same amount, converted by molar mass. One block for each molecule: values may come before it.

Experiments:
[1] = tested on: adjuvant-induced arthritis in rats; test: Systemic antiinflammatory activity against adjuvant-induced arthritis in rats; type: in vivo, rat; conditions: intraperitoneal injection, 50 mg/kg
inflammation = test: Topical and injectable antiinflammatory activity (general statement); type: in vivo
[2] = tested on: croton oil-induced inflammation of mouse ears; test: Topical antiinflammatory activity against croton oil-induced inflammation of mouse ears; type: in vivo; conditions: 2-3 mg/ear
[3] = tested on: rat uterine smooth muscle; test: Contraction of rat uterine smooth muscle
[4] = tested on: croton oil-induced inflammation of rat ears; test: Topical antiinflammatory activity against croton oil-induced inflammation of rat ears; type: in vivo; conditions: 2-3 mg/ear
[5] = tested on: PGE1-induced smooth muscle contractions; test: Antagonism of PGE1-induced smooth muscle contractions; conditions: read-out: antagonizes PGE1-induced smooth muscle contractions, concentration for 50% inhibition
[6] = tested on: histamine-induced bronchoconstriction; test: Histamine-induced bronchoconstriction; conditions: in vivo
[7] = tested on: gastrin-induced gastric acid secretion; test: Gastrin-induced gastric acid secretion; conditions: in vivo
bronchial smooth muscle = conditions: cited from earlier work

IC50 [5]: 10 µg/mL (≈ 25.3 µM)
SMILES: CCCCCC(O)/C=C/C1CCC(=O)N1CCCCCCC(=O)OC(C)(C)C (stereo not drawn) [Compound 4, Tert-butyl 7-[2-Oxo-5-(3-hydroxy-1-oct-1-enyl)-1-pyrrolidinyl]heptanoate]
systemic antiinflammatory activity [1]: also active, though slightly less so | active as injectable antiinflammatory agent (inflammation): active | active as topical antiinflammatory agent (inflammation): active | topical antiinflammatory activity [2]: also active, though slightly less so | antagonism of the contracting action of compound 5 ([3]; rat uterine smooth muscle, compound 5-induced contraction): is antagonized in this action | topical antiinflammatory activity [4]: also active, though slightly less so

SMILES: CCCCCC(O)/C=C/C1CCC(=O)N1CCCCCCC(=O)O (stereo not drawn) [Compound 5, 7-[2-Oxo-5-(3-hydroxy-1-oct-1-enyl)-1-pyrrolidinyl]-heptanoic Acid]
activity as antagonist to histamine-induced bronchoconstriction [6]: has shown activity | systemic antiinflammatory activity [1]: has shown activity | active as injectable antiinflammatory agent (inflammation): active | active as topical antiinflammatory agent (inflammation): active | topical antiinflammatory activity [2]: has shown activity | activity in cutting off gastrin-induced gastric acid secretion [7]: has shown activity | contracts rat uterine smooth muscle (concentration) ([3]; in the same way as PGE1): 50 ng/mL | topical antiinflammatory activity [4]: has shown activity

SMILES: CCCCC[C@H](O)/C=C/[C@H]1[C@H](O)CC(=O)[C@@H]1CCCCCCC(=O)O [PGE1, reference compound]
effect on the contracting action of PGF2α (bronchial smooth muscle): reverses or antagonizes | contraction of rat uterine smooth muscle (in words) ([3]; comparator for compound 5): contracts rat uterine smooth muscle

SMILES: CCCCC[C@H](O)/C=C/[C@@H]1[C@@H](C/C=C\CCCC(=O)O)[C@@H](O)C[C@H]1O [PGF2 α]
contracting action (bronchial smooth muscle): contracting action
